The values below come from patent US20190142810A1, “MITOCHONDRIAL INHIBITORS FOR THE TREATMENT OF PROLIFERATION DISORDERS” (Basilea Pharmaceutica International AG, priority 2016, published 2019).

What all share (assay type): cell-based
For one experiment, the system named is HeLa galactose cells. The experiment is described as follows: Cell growth and proliferation assay of HeLa galactose cells (crystal violet). The following applies: Homo sapiens, HeLa, 72 h, 72 hours incubation, crystal violet staining, absorbance at 590 nm. The procedure, abridged:
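HeLa cells adapted stepwise over three weeks to glucose-free galactose medium plus 10 mM galactose, seeded at 2000 cells/well and treated 72 h with compounds (0.001% DMSO) at 37° C. Growth read by crystal violet staining, dye solubilized and absorbance at 590 nm; IC50 from concentration-response curves.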

In experiment [1] the test system is Oxygen consumption (mitochondrial function). The experiment is described as follows: Oxygen consumption assay (MitoXpress probe). The following applies: 5 h, MitoXpress probe signal, kinetic analysis at 37° C. for 5 hours, compared to untreated cells. The procedure, abridged: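 Cells seeded at 50′000/well, after 24 h given fresh media with inhibitor at a range of concentrations, then MitoXpress probe under mineral oil. Kinetic TRF read (380 nm excitation, 650 or 665 nm emission) at 37° C. for 5 hours. IC50 = concentration inhibiting 50% of probe signal versus untreated cells.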

In experiment [2] the test system is HeLa glucose versus HeLa galactose cells. The experiment is described as follows: Cell growth assays (crystal violet) in HeLa galactose and HeLa glucose cells. The settings on record: FIG. 1, crystal violet cell growth assay. The procedure:
The cervical tumor cell line HeLa (ATCC, CCL-2) was cultivated in DMEM medium (Invitrogen cat. no. 11971, 4.5 g/L high glucose) containing 10% fetal calf serum (Sigma cat. no. F9665) and 1% Penicillin/Streptomycin (Sigma cat. no. P0781) at 37° C. in 5% CO2. HeLa galactose cells (i.e. HeLa cells that grow in high concentrations of galactose) were generated from HeLa glucose cells (i.e. HeLa cells that grow in high concentrations of glucose) by gradually changing the amount of glucose in the media to zero glucose in the presence of galactose as a sugar source (50% galactose/50% glucose media for one week, then 75% galactose/25% glucose media for one week, to 100% galactose media in the third week). Galactose media (Invitrogen cat. no. 11966) was supplemented with 10 mM galactose (Sigma cat. no. G5388).
Cell Growth and Proliferation Assay of HeLa Galactose and Glucose Cells
HeLa galactose cells and HeLa glucose cells were seeded in 96 well plates (TPP, cat. no 92696) at 2000 and 1500 cells/well, respectively, in 100 μL of complete medium. […] Absorbance at 590 nm was measured using a SpectraMax® 250 plate reader (Molecular Devices). Antiproliferative/growth inhibition IC50s were calculated from concentration-response curves using GraphPad Prism software. […]

Broadly, the IC50 is the midpoint of a concentration-inhibition curve. Regarding `Cc1nsc(NC(=O)N2CCC(=Cc3c(F)cc(C(F)(F)F)cc3F)CC2)n1` [Example 41, 4-[[2,6-difluoro-4-(trifluoromethyl)phenyl]methylene]-N-(3-methyl-1,2,4-thiadiazol-5-yl)piperidine-1-carboxamide], the IC50 in the experiment with HeLa galactose cells was 23 nM; in experiment [1] it was 41 nM. Further, the “differential sensitivity in HeLa glucose versus HeLa galactose cell growth” value in experiment [2] was “exhibit differential sensitivity”.
